We go through seven molecules from US7935532B2, “DWF4 polynucleotides, polypeptides and uses thereof” (Arizona Board of Regents for and on behalf of Arizona State …, priority 1999, dated 2011).

Type in all cases: in vivo, Arabidopsis thaliana
The subject of assay [1] is dwf4 seedlings. Description: Feeding of BR biosynthetic intermediates to dwf4 seedlings in liquid media (rescue, dose-response). Conditions: for rescue of the light-grown dwf4 phenotype: liquid media; for response of dwf4 seedlings in dose-response experiment in the dark: dark-grown, 6-oxoCN 10^−8 to 3×10^−6 M, 6-deoxoCT high concentrations. The method, then:
In view of the results described above, we hypothesized that DWF4 mediates one or more of several steroid hydroxylation steps in the BR biosynthetic pathway. To test this, dwf4 was grown on all of the available biosynthetic intermediates in the BR biosynthetic pathways and examined to ascertain which intermediates could rescue the dwarf phenotype. In addition to the intermediates belonging to the early C-6 oxidation and late C-6 oxidation pathways (Choi et al. (1997), supra), 22α-hydroxycampesterol (22-OHCR), 6α-hydroxycastasterone (6-OHCT) (Takatsuto et al. (1997) J. Chem. Res. (synop.) 11:418-419), and […] (S. Takatsuto, T. Watanabe, T. Noguchi, and S. Fujioka, unpublished data) were synthesized and tested.
Germinated seedlings were transferred to media supplemented with one of the intermediates or BL to pinpoint the step catalyzed by DWF4. […] In addition, the rescued seedlings were less green than the dwarfs. These experiments were conducted in liquid media. Feeding experiments performed in the dark yielded similar results.
However, on CT the overall morphology of dwf4 was essentially rescued to wild-type phenotype at 3×10^−7 M and higher, whereas with 6-deoxoCT, rescue occurred with as little as 10^−7 M and may have even been inhibitory at higher concentrations. Of particular interest is the more dramatic response of the epicotyls versus the smaller response of the hypocotyls to CT. This same phenomenon was true for seedlings treated with >10^−7 M 6-deoxoCT.
A higher concentration of CT for dark-grown seedlings, compared with light-grown seedlings, 3×10^−6 M (FIG. 5B), was required to convert the hypocotyl to a length similar to that of the wild type.

The subject of assay [2] is 6-week-old dwf4 plants. Description: Treatment of soil-grown mature dwf4 plants with BR intermediates and BL (pedicel elongation). The note with it: 10^−6 M, compared with CT and TE at 10^−5 M. The protocol: To determine whether the results of the seedling feeding experiments could be applicable to soil-grown mature plants, 6-week-old dwf4 plants were treated with BR intermediates and BL. Concentrations of applied intermediates were adjusted empirically to optimize responses. Consistent with the results obtained from the seedlings experiments, only 22α-hydroxylated compounds can rescue the dwf4 phenotype. The elongation response was only observed in the young tissues of the inflorescence, regardless of whether the BRs were applied locally or sprayed over the entire plant. In contrast to the striking elongation of the peduncles and pedicels, fertility was not restored by BR treatment. The sterility in dwf4 is hypothesized to be mechanical, which means that the filaments are shorter than the carpels such that the pollen is shed onto the ovary walls rather than onto the stigmatic surface. In fact, if dwf4 plants are hand pollinated using […], fertility increases.

Assay [3] has as its system DWF4 promoter (D4GL). Description: DWF4-promoter:GUS (D4GL) activity in seedlings supplied with hormone. From the text:
Two promoter constructs were used for the DWF4-promoter:GUS(D4G) analysis. For promoter fusions, polymerase chain reaction (PCR) products spanning 1.1 kb DNA upstream of the translation initiation site were amplified using primers D4XLINIT (5′-[…]-3′) (SEQ ID NO:16) and a T7 primer (5′[…]-3′) (SEQ ID NO:17). For template for PCR, a DWF4 genomic clone subcloned into pBluescript SK-vector (Stratagene La Jolla, Calif.) was used as described herein. The PCR products were restricted with SalI and BamHI, and ligated into the same restriction site of a promoterless GUS vectors pBI101; this 1.1 kb promoter:GUS construct as named pD4GL. For the pD4GS construct, pD4GL was digested with HindIII, the small restriction fragment was removed, and the remaining vector with the partial promoter was self-ligated. The constructs were introduced into Agrobacterium strain GV3101 through electroporation.
For histochemical analysis of the D4GL plants, seeds were plated on M&S plates and grown in the dark and light. Seedlings were harvested at the designated dates and stained overnight using a substrate mixture (0.1 M NaPO4, pH 7, 10 mM EDTA, 0.5 mM K3Fe(CN)6, 0.5 mM K4FE(CN)6, 1 mM X-glucuronide, and 0.1% Triton X-100). Seedlings cleared with 90% ethanol were rehydrated before taking pictures using a Stemi SV11 dissecting microscope (Zeiss, N.Y.).
Since DWF4 is proposed to be a key enzyme in the BR biosynthetic pathway, DWF4 transcription could be regulated by an end-product feedback mechanism. To this end, D4GL was expressed in different genetic backgrounds including two BR deficient mutants, dwf7-1 and dwf8-1, and a BR-enriched line, AOD4. GUS activity was increased in dwf7-1 and dwf8-1 but decreased in AOD4 lines. DWF7 is a C-5 desaturase that acts in the sterol specific part of the pathway. D4GL activity in dwf7-1 was found in the same tissues as wild type but, dwf8-1 is defective in a BR biosynthetic step downstream of CPD. […]

Assay [4] deals with wild-type seedlings. Description: Hypocotyl and root length of wild-type seedlings supplemented with epi-BL. The note with it: light-grown wild type, 10^−6 M epi-BL, 12 days. The method, then: To compare the phenotypic effects resulting form the endogenous and exogenous addition of BRs, the length of roots and hypocotyls of 16 seedlings of dwf4, wild-type controls, wild-type plants supplemented with 10^−6 M epi-BL, and two independent AOD4 lines, grown for 12 days in the light or dark was measured. […] These characteristic responses of wild-type plants to epi-BL treatment were similar in two independent AOD4 lines. […] Inhibition of root growth was also obvious in the AOD4 lines. Furthermore the increased hypocotyl length and reduced root length were consistently observed in 15 independent transformants of tobacco (TOD4) harboring a pOD4 construct.

The subject of assay [5] is wild-type and dwf4 seedlings. Description: GA response of seedlings germinated on GA (hypocotyl elongation). The protocol:
The conditions used for plant growth were essentially as described previously (Feldmann (1991) Plant J. 1:71-82; Forsthoefel et al. (1992) Aust. J. Plant Physiol. 19:353-366), except that agar-solidified medium contained 0.5% sucrose. Seedlings up to 2 weeks of age ([…] of age for dark-growth experiments) were grown on 0.9% agar-solidified medium containing 1×Murashige and Skoog 1962 salts (Murashige, T., and Skoog, F. (1962) Physiol. Plant, 15:473-497) and 0.5% sucrose (w/v) and cold treated (4° C.) for 2 days in the dark before transfer to the light (24 hr light; 80 μmol M^−2 sec^−1); older plants were grown in potting soil. The plates were sealed with Parafilm (American National Can Co., Chicago, Ill.) for the entire experiment. For nucleic acid extraction, genetic analysis, and other experiments in which mature plants were required, seeds were sown on Metromix 350 (Grace Sierra, Milpitas, Calif.) presoaked with distilled water. The pots were covered with plastic wrap and cold treated (4° C.) for two days before transfer to a growth chamber (16:8, light [240 μmol m^−2 sec^−1]:dark; 22 and 21° C., respectively, and 75 to 90% humidity). The plastic wrap was removed 5 days after germination, and the pots were subirrigated in distilled water as required. Germination of seeds for dark growth experiments was induced by overnight exposure of the seeds to light immediately after removing the plates from incubation at 4° C. The dwf4-1 and dwf4-2 mutations were in the Arabidopsis thaliana ecotype Wassilewskija (Ws-2) background; the dwf4-3 and dwf4-4 mutations were in the Enkheim (En-2) background.
Of the endogenous (hormonal) signals that might be deficient in dwarf plants, an obvious candidate is GA, because gibberellin-deficient mutants are shorter in stature than are the wild-type plants (Koommeef and Van der Veen, supra). Our results, however, indicate that dwf4 is not defective in the synthesis of gibberellins. […] Similar results were obtained when soil-grown plants were sprayed with 1 mM GA once inflorescences first became visible: dwf4 inflorescence stems elongated by only 28% above the untreated controls, whereas those of the wild type elongated by 45% above the untreated controls. Mutants that owe their reduced stature to decreased levels of endogenous gibberellins can be fully rescued by added hormone (Koornneef and Van der Veen, supra; Talon et al., supra). In addition, dwf4 seeds germinate in the absence of exogenously supplied GA.

The subject of assay [6] is wild-type and dwf4 plants. Nature of the assay: GA response of soil-grown plants sprayed with GA (inflorescence stem length). The method, then: (§1) Gibberellic acid (GA) response was assayed on plants grown individually in 5.7-cm pots. Once inflorescences reached 1 to 2 mm in height, they were sprayed weekly with 1 mM GA3 (Sigma). Control plants were sprayed with water. One week after the third spraying, plants were collected, and the length of the main stem was measured between the top of the rosette and the base of the most distal pedicel; 13 to 18 plants of each line were measured per treatment. Auxin response was tested by growing seedlings for 10 days under 16 hr of light on vertically oriented agar plates containing various concentrations of 2,4-D (Gibco, Grand Island, N.Y.). Genetic interaction with the hy2 mutation was tested by growing seedlings under continuous light for 7 days. Brassinolide (BL) response was determined in liquid culture, as described by Clouse et al. (1993) supra, except that three or four seedlings were grown in each well of a 24-well culture plate for 7 days. Measurements were taken for 10 to 20 seedlings for each genotype and condition, under a dissection microscope fitted with an ocular micrometer.
Of the endogenous (hormonal) signals that might be deficient in dwarf plants, an obvious candidate is GA, because gibberellin-deficient mutants are shorter in stature than are the wild-type plants (Koommeef and Van der Veen, supra). […]

The subject of assay [7] is wild-type and dwf4 seedlings. Nature of the assay: Auxin response of seedlings on vertically oriented agar plates with 2,4-D. The method, then: as §1
Auxin can also stimulate cell elongation. This effect is especially visible in young seedlings (Klee and Estelle, supra). […] Higher concentrations of auxin were inhibitory for both wild-type and dwf4 seedlings, and lower concentrations had no effect. In view of the inhibition of root growth, it is clear that dwf4 is not auxin resistant; rather, its elongation response is compromised.

Setting [8] is: light-grown seedlings, dose-response.

A value given as a limit tells only on which side of the number the result lay.

Regarding `CC(C)[C@H](C)[C@@H](O)[C@H](O)[C@@H](C)[C@H]1CC[C@H]2[C@@H]3C[C@H](O)[C@H]4C[C@H](O)[C@H](O)C[C@]4(C)[C@H]3CC[C@]12C` [6-OHCT, 6α-hydroxycastasterone], the “rescue of the light-grown dwf4 phenotype” value in assay [1] (light-grown seedlings) was “rescued”.

As to `CC(C)[C@H](C)[C@@H](O)[C@H](O)[C@@H](C)[C@H]1CC[C@H]2[C@@H]3CC[C@H]4C[C@@H](O)CC[C@]4(C)[C@H]3CC[C@]12C` [6-deoxoTE, 6-deoxoteasterone], in assay [2], the “sensitivity of dwf4 pedicels” value was “more sensitive”.

In the case of `CC(C)[C@H](C)C[C@H](O)[C@@H](C)[C@H]1CC[C@H]2[C@@H]3CC[C@H]4C[C@@H](O)CC[C@]4(C)[C@H]3CC[C@]12C` [6-deoxoCT, 6-deoxocathasterone], in assay [2], the “sensitivity of dwf4 pedicels” value was “more sensitive”. In addition, the “response of dwf4 seedlings in dose-response experiment in the dark” value in assay [1] was “caused dramatic elongation but were less effective at rescuing dwf4 hypocotyls to wild-type phenotype”. Also, in assay [1] (setting [8]), the “concentration at which dwf4 overall morphology is rescued to wild-type phenotype” value is given as ≥ 10^−7 M; the “concentrations at which seedlings displayed inhibition in hypocotyl and root elongation and cotyledon and leaf expansion” value is on record as > 10^−7 M. The “rescue of the light-grown dwf4 phenotype” value in assay [1] (light-grown seedlings) was “rescued”.

With `CC(C)[C@H](C)CC[C@@H](C)[C@H]1CC[C@H]2[C@@H]3CC(=O)[C@H]4C[C@@H](O)CC[C@]4(C)[C@H]3CC[C@]12C` [6-oxoCN, 6-oxocampestanol], the “response of dwf4 seedlings in dose-response experiment in the dark” value in assay [1] was “failed to respond”. Besides, in assay [1] (light-grown, even at high concentrations (3×10^−6 M)), the “response of dwf4 seedlings in dose-response test” value is listed as “failed to respond”.

On to `CC(C)[C@@H](C)[C@@H](O)[C@H](O)[C@@H](C)[C@H]1CC[C@H]2[C@@H]3COC(=O)[C@H]4C[C@H](O)[C@H](O)C[C@]4(C)[C@H]3CC[C@]12C` [epi-BL, 24-epibrassinolide], for which the “GUS activity of D4GL plants” value in assay [3] (10^−6 M epi-BL, tissues normally stained in untreated controls) is “greatly reduced GUS activity”. Besides, in assay [4], the hypocotyl length result is recorded as “elongated hypocotyls” and the root length entry was “shorter than untreated control plants”.

`C=C1C[C@]23C[C@@]1(O)CC[C@H]2[C@@]12C=C[C@H](O)[C@@](C)(C(=O)O1)[C@H]2[C@@H]3C(=O)O` [GA, Gibberellic acid]: the “GUS staining in shoots and roots of D4GL plants” value in assay [3] (10^−4 M GA3) is “did not display an increase in GUS staining”. Further, the “hypocotyl length of D4GL plants” value in assay [3] (10^−4 M GA3) is recorded as “longer than controls”. For the same molecule, the “hypocotyl elongation response to GA” value in assay [5] (dwf4 seedlings germinated on 10^−5 M GA) is given as “responded minimally, if at all”; in assay [5] (dwf4 seedlings, 10^−4 M compared with 10^−5 M GA), “essentially saturated for elongation”; in assay [5] (wild-type seedlings at 10^−4 M GA) it was “elongated slightly more than at 10^−5 M”; in assay [5] (wild-type seedlings germinated on 10^−5 M GA), “demonstrated an elongation response”. Besides, the “inflorescence stem elongation above the untreated controls” value in assay [6] (dwf4, soil-grown plants sprayed with 1 mM GA) is 28%; in assay [6] (wild type, soil-grown plants sprayed with 1 mM GA), 45%.

For `O=C(O)COc1ccc(Cl)cc1Cl` [2,4-D], the hypocotyl elongation result is reported as “no effect” in assay [7] (concentrations lower than 10^−8 M); “inhibitory” in assay [7] (wild-type and dwf4 seedlings, concentrations higher than 10^−8 M). Besides, the root growth entry in assay [7] (wild-type and dwf4 seedlings, 10 days, all concentrations assayed) is “inhibition of root growth was evident”.
